Measured values as given in the supplement of paper PMC10307832.

What was measured:
Test in all cases: relative viability (nuclei count vs DMSO), 5 days (fraction); higher = more cells survive
[1] = compound: C=CC(=O)Nc1cc(-n2c(=O)ccc3cnc4ccc(-c5ccc(NS(C)(=O)=O)cc5)cc4c32)ccc1C [BMX-IN-1] + CC(=O)Nc1cccc(-n2c(=O)n(C3CC3)c(=O)c3c(Nc4ccc(I)cc4F)n(C)c(=O)c(C)c32)c1 [Trametinib] (partner 0.02 µM)
In short: (§1)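 The day after seeding in 1536-well plates, lung cancer cell lines were treated by pin tool with a single drug, or with a fixed anchor-drug dose together with five library-drug doses (not always all listed) in √10 steps. After 5 days, a combined fix-and-stain solution (final 0.05% Triton X-100, 1% formaldehyde, 1 ug/ml Hoechst) was added. Nuclei counted on 4× images gave relative viability as treated counts over vehicle counts, reported as the median of duplicate plates.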

[2] = compound: C=CC(=O)N1CCC[C@@H](n2nc(-c3ccc(Oc4ccccc4)cc3)c3c(N)ncnc32)C1 [Ibrutinib] + CC1(C)CCC(c2ccc(Cl)cc2)=C(CN2CCN(c3ccc(C(=O)NS(=O)(=O)c4ccc(N[C@H](CCN5CCOCC5)CSc5ccccc5)c(S(=O)(=O)C(F)(F)F)c4)cc3)CC2)C1 [Navitoclax] (partner 0.5 µM)
In short: as §1

[3] = compound: C=CC(=O)Nc1cc(-n2c(=O)ccc3cnc4ccc(-c5ccc(NS(C)(=O)=O)cc5)cc4c32)ccc1C [BMX-IN-1] + CCNC(=O)c1noc(-c2cc(C(C)C)c(O)cc2O)c1-c1ccc(CN2CCOCC2)cc1 [Luminespib] (partner 0.01 µM)
In short: as §1

[4] = compound: C=CC(=O)N1CCC[C@@H](n2nc(-c3ccc(Oc4ccccc4)cc3)c3c(N)ncnc32)C1 [Ibrutinib] + N=C(N)NC(=N)NCCc1ccccc1 [Phenformin] (partner 250 µM)
In short: as §1

| Cell Line | relative viability ([1]; first compound 0.02 µM) | relative viability ([1]; first compound 0.2 µM) | relative viability ([1]; first compound 0.6325 µM) | relative viability ([1]; first compound 2 µM) | relative viability ([2]; first compound 0.005 µM) | relative viability ([2]; first compound 0.01581 µM) | relative viability ([2]; first compound 0.05 µM) | relative viability ([2]; first compound 0.1581 µM) | relative viability ([2]; first compound 0.5 µM) | relative viability ([3]; first compound 0.02 µM) | relative viability ([3]; first compound 0.2 µM) | relative viability ([3]; first compound 0.6325 µM) | relative viability ([3]; first compound 2 µM) | relative viability ([4]; first compound 0.005 µM) | relative viability ([4]; first compound 0.01581 µM) | relative viability ([4]; first compound 0.05 µM) | relative viability ([4]; first compound 0.1581 µM) | relative viability ([4]; first compound 0.5 µM) |
| --- | --- | --- | --- | --- | --- | --- | --- | --- | --- | --- | --- | --- | --- | --- | --- | --- | --- | --- |
| NCI-H1651 | 0.866 | 0.908 | 0.879 | 0.893 | 0.853 | 1.03 | 1.12 | 1 | 0.837 | 1.12 | 0.911 | 1.05 | 0.773 | 0.34 | 0.262 | 0.295 | 0.308 | 0.252 |
| NCI-H1734 | 0.732 | 0.751 | 0.735 | 0.7 | 0.839 | 0.821 | 0.794 | 0.869 | 0.726 | 0.199 | 0.213 | 0.202 | 0.147 | 0.338 | 0.349 | 0.419 | 0.355 | 0.381 |
| NCI-H1915 | 0.326 | 0.302 | 0.519 | 0.317 | – | 0.767 | 0.799 | 0.793 | 0.795 | 0.912 | 1.14 | 0.785 | 0.751 | 0.401 | 0.351 | 0.367 | 0.421 | 0.373 |
| NCI-H2023 | 0.586 | 0.564 | 0.623 | 0.539 | 1.02 | 0.919 | 0.884 | 1.07 | 0.871 | 1.06 | 1.03 | 0.774 | 0.739 | 0.376 | 0.392 | 0.402 | 0.45 | 0.357 |
| NCI-H1755 | 0.703 | 0.81 | 0.853 | 0.695 | 0.988 | 1.02 | – | 1.09 | 0.952 | 0.525 | 0.387 | 0.502 | 0.597 | 0.667 | 0.624 | 0.65 | 0.627 | 0.665 |
| EPLC-272H | 0.27 | 0.257 | 0.311 | 0.318 | – | 0.982 | 1.07 | 1.28 | 0.694 | 0.208 | 0.223 | 0.242 | 0.247 | 0.314 | 0.286 | 0.283 | 0.274 | 0.207 |
| NCI-H1793 | 0.544 | 0.454 | 0.505 | 0.454 | – | 0.282 | 0.603 | 0.498 | 0.343 | 0.172 | 0.167 | 0.167 | 0.204 | – | 0.313 | 0.281 | 0.318 | 0.282 |
| HCC-827 | 0.558 | 0.537 | 0.475 | 0.518 | 1.01 | 0.995 | 1.08 | 1.04 | 0.434 | 0.589 | 0.805 | 0.716 | 0.713 | 0.408 | 0.358 | 0.304 | 0.431 | 0.181 |
| NCI-H2085 | 0.52 | 0.75 | 0.564 | 0.538 | 1.1 | 1.13 | 1 | 1.13 | – | 0.404 | 0.389 | 0.401 | 0.406 | 0.584 | 0.691 | 0.616 | 0.589 | 0.495 |
| LCLC-97TM1 | 0.213 | 0.27 | 0.204 | 0.176 | 0.486 | 0.561 | 0.474 | 0.398 | 0.377 | 0.969 | 0.856 | 0.817 | 0.823 | 0.452 | 0.457 | 0.449 | 0.504 | 0.411 |
| EKVX | 0.308 | 0.39 | 0.375 | 0.369 | 0.868 | 0.96 | 0.915 | 0.806 | 0.485 | 0.945 | 0.835 | 0.85 | 0.857 | 0.224 | 0.245 | 0.226 | 0.227 | 0.13 |
| PC-14 | 0.814 | 1.01 | 0.927 | 0.793 | 1.04 | 1.05 | 1.12 | 1.05 | 0.922 | 0.184 | 0.107 | 0.14 | 0.152 | 0.589 | 0.512 | 0.429 | 0.357 | 0.174 |
| NCI-H1355 | 0.385 | 0.459 | 0.463 | 0.45 | – | 0.904 | 0.918 | 0.96 | 0.801 | 0.75 | 0.724 | 0.699 | 0.711 | 0.419 | 0.463 | 0.485 | 0.469 | 0.427 |
| NCI-H1792 | 0.645 | 0.485 | 0.44 | 0.391 | 0.669 | 0.694 | 0.69 | 0.474 | 0.599 | 0.428 | 0.31 | 0.427 | 0.46 | – | 0.449 | – | 0.206 | 0.171 |
| NCI-H2009 | 0.254 | 0.251 | 0.239 | 0.29 | 1.13 | 1.12 | 1.22 | 1.21 | 1.16 | 1.11 | 1.09 | 1.06 | 1.08 | 0.558 | 0.476 | 0.518 | 0.476 | 0.499 |
| HARA | 0.907 | 0.449 | 0.492 | 0.654 | 1.17 | 1.1 | 1.12 | 1.15 | 0.791 | 1.01 | 0.207 | 0.683 | 0.682 | 0.445 | 0.377 | 0.357 | 0.406 | 0.331 |
| H3255 | 0.725 | 0.624 | 0.599 | 0.672 | 0.539 | 0.511 | 0.226 | 0.425 | 0.157 | 0.851 | 0.907 | 1.02 | 0.927 | 0.364 | 0.344 | 0.382 | 0.375 | 0.233 |
| SW 1573 | 0.657 | 0.719 | 0.624 | 0.507 | 0.904 | 0.857 | 1.01 | 0.95 | 0.848 | 0.28 | 0.221 | 0.225 | 0.205 | 0.317 | 0.345 | 0.477 | 0.406 | 0.423 |
